Results published in patent US20140248342A1, “Fe(III) 2,4-Dioxo-1-Carbonyl Complexes For Treatment And Prophylaxis Of Iron Deficiency Symptoms And Iron Deficiency Anaemias” (Vifor (International) AG, priority 2011, published 2014).
Where two headings read alike, the source gives them in different places.

Legend:
[1] = test system: Sprague-Dawley rats; details: cited from earlier work; for toxicity in animal studies (in words): literature report London, Smith 1983
[2] = test system: Male NMRI (SPF) mice fed a low-iron diet; test: Iron utilization in mouse model (low-iron diet, hemoglobin and body weight increase); assay type: in vivo; details: stomach tube, 2 mg iron/kg body weight/day, days 1-5 and 8-12; utilization on day 15 calculated from hemoglobin and body weight increase
Description: The excellent Fe utilizations that can be accomplished through the Fe complexes according to the invention were measured by means of the following mouse model.
Male NMRI (SPF) mice (approximately 3 weeks old) were fed a low-iron diet (approx. 5 ppm iron) for approximately 3 weeks. The iron complexes were then administered to them by means of a stomach tube (2 mg iron/kg body weight/day) 2 times a day for 5 days, with an interruption of 2 days (days 1-5 and 8-12). Utilization on day 15 was calculated from the hemoglobin increase and the body weight increase in accordance with the formula
0.07=Factor for 70 ml blood per kg body weight (BW)
Hb1=Hemoglobin level (g/l) on day 1 Hb2(3)=Hemoglobin level (g/l) on day 8 (or 15) BW4=body weight (g) on day 1 BW9(14)=body weight (g) on day 8 (or 15) Hb1 Control=average hemoglobin level (g/l) on day 1 in the control group, Hb2(3) Control=average hemoglobin level (g/l) on day 8 (or 15) in the control group, BW4 Control=average body weight (g) on day 1 in the control group, BW9(14) Control=average body weight (g) on day 8 (or 15) in the control group, Fe Dos.=entire administered iron (mg Fe) over 5 or 10 days,
Δ Utilization=Fe tot. utilized (examined group)−Fe ut. Control group, utilized from food, (mg Fe)

[3] = test system: Sprague-Dawley rats; test: Toxicity compared with Fe(acac)3: oral administration, single dose, observation until 24 h; assay type: in vivo; details: for Number of dead animals after 24 h / animals still alive after 24 hours: 6 Sprague-Dawley rats; for toxicological findings after 24 hours: Sprague-Dawley rats
Source text: The toxicity of the novel iron complex compounds was compared with that of tris(acetylacetonate)iron.

Compound | Utilization n 15 d (abs. %) [2] [abs. %] | also measured
CC(=O)/C=C(/C)[O-].CC(=O)/C=C(/C)[O-].CC(=O)/C=C(/C)[O-].[Fe+3] [Fe(Acac)3, tris(acetylacetonate)iron] | – | toxicity in animal studies (in words) [1]: highly toxic; toxicity in animal studies (in words) ([1]; listed as iron(III)-(acetylacetonate)3): very toxic; Number of dead animals after 24 h ([1]; single oral dose 1000 mg/kg iron complex (160 mg/kg iron), 10 animals, Lit. 1): 6
Tris-(1-(morpholin-4-yl)pentane-1,2,4-trione)-iron(III)-complex [Example 12] | 75 | –
Tris-(2,4-dioxopentanamide)-iron(III)-complex [Example 3] | 82 | Number of dead animals after 24 h ([3]; single oral dose 1400 mg/kg iron complex (170 mg/kg iron)): 0; animals still alive after 24 hours ([3]; single oral dose 1400 mg/kg): 6; toxicological findings after 24 hours ([3]; single oral dose 1400 mg/kg): absolutely no toxicological findings
Tris-(5-methyl-1-(morpholin-4-yl)hexane-1,2,4-trione)-iron(III)-complex [Example 11] | 51 | –
Tris-(N,N,5,5-tetramethyl-2,4-dioxohexanamide)-iron(III)-complex [Example 8] | 72 | –
Tris-(N,N,5,-trimethyl-2,4-dioxohexanamid)-iron(III)-complex [Example 9] | 89 | –
Tris-(ethyl 2,4-dioxopentanoate)-iron(III)-complex [Example 1] | 106 | Number of dead animals after 24 h ([3]; single oral dose 1600 mg/kg iron complex (170 mg/kg iron)): 0; animals still alive after 24 hours ([3]; single oral dose 1600 mg/kg): 6; toxicological findings after 24 hours ([3]; single oral dose 1600 mg/kg): absolutely no toxicological findings
Tris-(ethyl oxo(2-oxocyclohexyl)acetate)-iron(III)-complex [Example 6] | 65 | –
Tris-(ethyl oxo(2-oxocyclopentyl)acetate)-iron(III)-complex [Example 5] | 59 | –
Tris-(methyl 2,4-dioxopentanoate)-iron(III)-complex [Example 2] | 94 | –
